Assay results published in patent US20090176776A1, “SMALL MOLECULE INHIBITORS OF HIV-1 CAPSID ASSEMBLY” (UNIVERSITY OF ALABAMA AT BIRMINGHAM, priority 2005, published 2009).

Experiments:
[1] = target: T1, recombinant HIV-1 capsid protein (CA) (Human immunodeficiency virus type 1 group M subtype B, UniProt P12493); assay: Turbidity based HIV-1 capsid assembly assay; type: biochemical; conditions: initial assembly rate by turbidity; twofold dilutions over a 128 fold range; 30 μM CA, 2.25 M NaCl
T1 construct: recombinant HIV-1 capsid protein (CA); made in house
Procedure: The kinetics can be followed by monitoring the increase of turbidity using a spectrophotometer. The IC50 of the chemical compound tested is determined by titration. As the C-domain inhibits capsid assembly by forming CA-C-domain heterodimers, the effect of added C-terminal domain on the rate of assembly was evaluated by plotting the rate of assembly versus C-terminal domain concentration.
Soluble HIV-1 capsid protein can be triggered to assemble into tubes similar in diameter and morphology to intact cores by dilution into high iconic strength buffer. The kinetics of assembly can be followed by monitoring the increase in turbidity using a spectrophotometer (Lanham et al., J. Virol., 76:6900, 2002). This assembly assay was adapted to a 96-well, microplate format to allow for medium-throughput screening of compounds by measuring turbidity in a Nepeloskan Ascent plate reader (Thermo Electron Corp., UK). A DIVERSet™ library of 10,000 low molecular weight, “drug-like” compounds was purchased from ChemBridge Corp. (San Diego, Calif.). This library was selected for its potential bioavailability and application based on a pharmacophore diversity analysis. The average molecular weight of the compounds is 347 g/mol, the range being 200-596 g/mol. The compounds came plated in 96-well plates and solubilized in DMSO at 5 mgs/mL.
Turbidity based assay. A 1.5 μL aliquot of compound was diluted 90-fold into 50 mM Na2HPO4, […] buffer, pH 8 in an optically clear 96-well plate. The plate containing compounds and salt was read to check for compound solubility and to serve as a background reading for the assay. To initiate the assembly reaction, 15 μL of […] stock (in 50 mM Na2HPO4 pH 8) of recombinant HIV-1 capsid protein (CA), purified as described (Lanman et al., J. Virol., 76:6900, 2002), was added to each well of the 96-well plate using a multi-channel pipettor. […] Furthermore, the halftime of the assembly reaction is ˜5 minutes so reading the plate in thirds prevented loss of initial rate data. Therefore, CA was added to the first 4 lanes, the reactions followed for ten minutes, reading was paused, CA was then added to the next four lanes and the process repeated. Instrument settings are as follows: PMT gain of 500 V, lamp at 10V, and integration time of 60 ms. The data were exported to a custom designed Excel spreadsheet that allowed simultaneous plotting of kinetic curves.
Recombinant CA protein was purified as previously described and stored at 300 μM at −80° C. A turbidity based assembly assay, described above, was adapted to a 96-well, microplate format to allow for medium-throughput screening of compounds in a Nepheloskan Ascent plate reader (Thermo Electron Corp., UK). A 1.5 μL aliquot of compound or DMSO was diluted 90-fold into 50 mM Na2HPO4, 2.25 M NaCl buffer, pH 8 in an optically clear 96-well plate. To initiate the assembly reaction, 15 μL of the 300 μM stock (in 50 mM Na2HPO4 pH 8) of recombinant HIV-1 capsid protein (CA), was added to each well of the 96-well plate using a multi-channel pipettor.

Luc-M7 cells = assay: Cell viability of Luc-M7 cells (Cell-Titer Glo); type: cell-based; parameters: unit: μM; conditions: mock-infected Luc-M7 cells, 6 days
Procedure: (§1) Anti-HIV Assays (Multiple Round). The inhibitory effects of the tested compounds on HIV-1YU2 replication were determined by the level of luciferase expression after 6 days of infection using Bright-Glo assay (Promega). An amount of 1.5×10^4 Luc-M7 (a gift from Ned Landau) cells per ml were infected with HIV-1YU2 at a multiplicity of infection (MOI) of 3. The HIV-1 infected ([…] compound) or mock-infected (0-300 μM compound) Luc-M7 cells were placed in 96-well culture plates (100 μl/well) with 100 μl of various concentrations of the compounds with 20 μg/ml DEAE Dextran in triplicate and incubated at 37° C. under 5% CO2 at 100% humidity. After 6 days, cell viability was quantified by Cell-Titer Glo assay (Promega). […] On day 5 cell viability was determined in the mock-infected cells. FIGS. 12-18 show the anti-HIV assays for the examples of chemical compounds used according to the invention. After in-vitro assay, the chemical compounds in FIGS. 12-18 were selected for screening for cell viability and toxicity. Jurkat cells assay was used as screening assay. […] After five days, GFP expression was read. Cell viability was monitored with Alamar Blue assay. Luc M7 assay was designed to measure inhibitory activity of the chemical compounds to viral replication. After infection of cells with YU2 virus, plate cells in 96-well plate in the presence of six concentration of compounds in DMSO. At day 6, the number of cells in wells were read with Cell Titer Glo kit or by counting the number of cells infected with Bright Glo kit. 293T cells assay was designed to determine the toxicity. 293T cells were transfected with NL43. After four hours, transfected cells were plated in 96-well plate in DMSO and 2 μM Indinavir. 72 hours later, viral supernatant was collected and plated on J[…].

HIV-1YU2 = assay: Anti-HIV assay (multiple round), luciferase expression in Luc-M7 cells; type: cell-based; conditions: Luc-M7 cells infected with HIV-1YU2, 6 days, Bright-Glo
Procedure: as §1

Compound `Cc1ncc(C[n+]2csc(CCOC(=O)C3C4CC5CC(C4)CC3C5)c2C)c(N)n1.Cl.[Cl-]` (stereo not drawn) [Compound 26] has an IC50 [1] of 28 µM, a TC50 (Luc-M7 cells) of 70.4 and an IC50 (HIV-1YU2) of 4.57 µM.
